pIC50: −log10 of the molar value. Counter-ions that a name gives are not always drawn.
Key:
5-HT1A receptors = conditions: background, in words; cited from earlier work
5-HT1A = target: T1, 5-HT1A (Rattus norvegicus, UniProt P19327); test: 5-HT1A receptor binding in vitro (3H-8-OH-DPAT, rat frontal cortex/hippocampus); conditions: rat brain, ligand 3H-8-OH-DPAT 2 nM, 10 min 37° C.
T1 construct: from tissue
T1 sequence (P19327 1-422): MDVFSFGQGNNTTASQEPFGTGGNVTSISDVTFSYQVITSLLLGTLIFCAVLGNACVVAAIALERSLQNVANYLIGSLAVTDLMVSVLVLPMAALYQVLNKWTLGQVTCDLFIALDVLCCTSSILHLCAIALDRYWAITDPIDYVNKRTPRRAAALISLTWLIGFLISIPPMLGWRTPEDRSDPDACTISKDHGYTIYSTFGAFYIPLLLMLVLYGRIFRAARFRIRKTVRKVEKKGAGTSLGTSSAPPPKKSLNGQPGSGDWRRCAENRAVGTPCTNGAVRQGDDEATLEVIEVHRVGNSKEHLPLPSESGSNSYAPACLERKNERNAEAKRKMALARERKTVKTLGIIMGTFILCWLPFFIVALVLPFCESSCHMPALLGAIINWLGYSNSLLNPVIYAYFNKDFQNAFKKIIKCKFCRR
Protocol: (§1) Compounds of the general formula (I) were tested for binding to 5-HT receptors and compared with known ligands by the following procedure:
(§2) Rat brain tissue (as specified in the table hereinafter) was homogenized using a Polytron homogenizer. The final pellet was resuspended in 125 vol (tissue wet weight) of buffer.
(§3) In all assays incubation was carried out for 10 min at 37° C.
(§4) Detailed conditions for the receptor binding assay in vitro are tabulated below.

5-HT1B = target: T2, 5-HT1B (Rattus norvegicus, UniProt P28564); test: 5-HT1B receptor binding in vitro (3H-5-HT, 50 nM 8-OH-DPAT included)
T2 construct: from tissue
Protocol: as §1, §2, §3
Labelling of the 5-HT1B receptor was complicated by the fact that the available ligand ^3 H-5-HT is nonselective.
as §4

5-HT1 recognition sites = conditions: background, Ann.Reports Med.Chem. 21 (1986), 42-43; cited from earlier work
5-HT2 receptor subtype = conditions: background, in words; cited from earlier work

T2 sequence (P28564 whole entry): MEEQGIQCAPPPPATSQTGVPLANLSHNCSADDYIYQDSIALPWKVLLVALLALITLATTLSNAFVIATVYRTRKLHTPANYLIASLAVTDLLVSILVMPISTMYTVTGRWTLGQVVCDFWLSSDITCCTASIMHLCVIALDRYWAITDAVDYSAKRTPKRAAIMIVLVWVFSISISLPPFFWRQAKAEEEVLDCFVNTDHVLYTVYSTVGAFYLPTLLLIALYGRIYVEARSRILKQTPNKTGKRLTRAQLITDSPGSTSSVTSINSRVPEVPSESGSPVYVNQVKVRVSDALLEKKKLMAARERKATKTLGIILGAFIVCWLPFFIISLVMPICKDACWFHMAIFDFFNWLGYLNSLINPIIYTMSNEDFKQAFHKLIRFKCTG

Structure (SMILES) | pIC50 (5-HT1A) | pIC50 (5-HT1B) | further results
CCCN(CCC)C1CCc2cccc(O)c2C1 (stereo not drawn) [Example 8-OH-DPAT, 8-hydroxy-2-(di-n-propylamino)tetralin] | – | – | binds with high affinity to 5-HT1A receptors (5-HT1A receptors): high affinity
O=C1C2C3C=CC(C4C=CC43)C2C(=O)N1CCCCNCCc1c[nH]c2ccccc12 (stereo not drawn) [Example 1, 1-(4-(1,3-Dioxo-4,7-etheno-1,3,3a,4,4a,6a,7,7a-octahydro-2 H-cyclobut[f]isoindol-2-yl)butyl-1-amino)-2-(3-indolyl)-ethane, oxalate] | 7.59 | 6.32 | –
COc1ccc2[nH]cc(C3=CCNCC3)c2c1 [RU 24969] | – | – | affinity for 5-HT1 recognition sites (5-HT1 recognition sites): high affinity
O=C(c1ccc(F)cc1)C1CCN(CCn2c(=O)[nH]c3ccccc3c2=O)CC1 [ketanserin] | – | – | high affinity for the 5-HT2 receptor subtype (5-HT2 receptor subtype): high affinity

Further lines, with some results ahead:

pIC50 (5-HT1A) | pIC50 (5-HT1B) | Structure (SMILES) | further results
6.43 | 6.83 | O=C1c2ccccc2C(=O)N1CCCCNCCc1c[nH]c2ccccc12 [Example 2, 1-(4-Phthalimidobutyl-1-amino)-2-(3-indolyl)-ethane, oxalate] | –
8.40 | < 6.00 | COc1ccc2[nH]cc(CCNCCCCN3C(=O)CC4(CCCC4)CC3=O)c2c1 [Example 4, 1-(4-(7,9-Dioxo-8-azaspiro[4,5]decan-8-yl)butyl-1-amino)-2-(5-methoxy-3-indolyl)-ethane, oxalate] | –
– | < 6.00 | O=C1c2ccccc2S(=O)(=O)N1CCCCN1CCN(c2ncccn2)CC1 [Ipsapirone, reference compound] | –
8.60 | < 6.00 | COc1ccc2[nH]cc(CCNCCCCN3C(=O)C4C5C=CC(C6C=CC65)C4C3=O)c2c1 (stereo not drawn) [Example 5, 1-(4-(1,3-Dioxo-4,7-etheno-1,3,3a,4,4a,6a,7,7a-octa-hydro-2 H-cyclobut(f]isoindol-2-yl)butyl-1-amino)-2(5-methoxy-3-indolyl)-ethand, oxalate] | –
